ChEMBL document CHEMBL5321235, “Design, synthesis, and SAR study of novel flavone 1,2,4-oxadiazole derivatives with anti-inflammatory activities for the treatment of Parkinson's disease” (Eur J Med Chem, 2023)
The source made the active and inactive calls.

Experiments:
[1] = tested on: Microglia; test: Neuroprotective activity against MPTP-induced apoptosis in mouse microglia assessed as reduction in apoptotic cells in brain tissue at 15 mg/kg, ip administered with compound once daily for 2 weeks followed by MPTP addition on day 8 and measured after 2 weeks of compound addition by TUNEL staining based immunofluorescence analysis; format: functional, organism-based
[2] = tested on: BV-2; test: Inhibition of LPS-induced ROS production in mouse BV-2 cells at 5 uM pretreated for 18 hrs followed by LPS-stimulation and measured after 6 hrs by fluorescence microscopic analysis; format: functional, cell-based; settings: time 24.0 hrs
[3] = tested on: BV-2; test: Cytotoxicity against mouse BV-2 cells assessed as reduction in cell viability at 5 uM pretreated for 18 hrs followed by LPS-stimulation and measured after 6 hrs by MTT assay; format: toxicity, cell-based; settings: bv-2, 24 h
[4] = tested on: BV-2; test: Antiinflammatory activity in mouse BV-2 cells assessed as inhibition of LPS-induced NO production at 5 uM pretreated for 18 hrs followed by LPS-induction and measured after 6 hrs relative to control; format: functional; design: scale not given: the % may be the effect or the level left; settings: time 24 hrs
[5] = tested on: BV-2; test: Cytotoxicity against mouse BV-2 cells assessed as reduction in cell viability at 10 uM pretreated for 18 hrs followed by LPS-stimulation and measured after 6 hrs by MTT assay; format: toxicity, cell-based; settings: bv-2, 24 h
[6] = tested on: BV-2; test: Induction of apoptosis in LPS-induced mouse BV-2 cells assessed as increase in BAX mRNA expression at 5 to 10 uM pretreated for 18 hrs followed by LPS-stimulation and measured after 6 hrs by qRT-PCR analysis; format: functional, cell-based; settings: dose 5-10 µM, time 24.0 hrs
[7] = tested on: BV-2; test: Induction of apoptosis in LPS-induced mouse BV-2 cells assessed as increase in Caspase3 expression at 5 to 10 uM pretreated for 18 hrs followed by LPS-stimulation and measured after 6 hrs by Western blot analysis; format: functional, cell-based; settings: dose 5-10 µM, time 24.0 hrs
[8] = tested on: BV-2; test: Induction of apoptosis in LPS-induced mouse BV-2 cells assessed as increase in Caspase3 mRNA expression at 5 to 10 uM pretreated for 18 hrs followed by LPS-stimulation and measured after 6 hrs by qRT-PCR analysis; format: functional, cell-based; settings: dose 5-10 µM, time 24.0 hrs
[9] = biological target: MAP kinase p38 (Mus musculus) (UniProt P47811+O08911+Q9WUI1+Q9Z1B7); test: Inhibition of LPS-induced p38 phosphorylation in mouse BV-2 cells at 5 to 10 uM pretreated for 12 hrs followed by LPS-stimulation and measured after 6 hrs by Western blot analysis; format: cell-based; settings: dose 5-10 µM, time 18.0 hrs
[10] = tested on: Mus musculus; test: Antiinflammatory activity in MPTP-induced C57BL/6J mouse assessed as increase in IL-10 expression at 15 mg/kg, ip administered with compound once daily for 2 weeks followed by MPTP addition on day 8 and measured after 2 weeks of compound addition Western blot analysis; format: functional, organism-based
[11] = tested on: Microglia; test: (§1) Neuroprotective activity against MPTP-induced apoptosis in mouse microglia assessed as increase in BAX expression in brain tissue at 15 mg/kg, ip administered with compound once daily for 2 weeks followed by MPTP addition on day 8 and measured after 2 weeks of compound addition by Western blot analysis; format: functional, organism-based
[12] = tested on: BV-2; test: Induction of apoptosis in LPS-induced mouse BV-2 cells assessed as increase in BAX expression at 5 to 10 uM pretreated for 18 hrs followed by LPS-stimulation and measured after 6 hrs by Western blot analysis; format: functional, cell-based; settings: dose 5-10 µM, time 24.0 hrs
[13] = tested on: BV-2; test: Induction of apoptosis in LPS-induced mouse BV-2 cells assessed as increase in Bcl-2 mRNA expression at 5 to 10 uM pretreated for 18 hrs followed by LPS-stimulation and measured after 6 hrs by qRT-PCR analysis; format: functional, cell-based; settings: dose 5-10 µM, time 24.0 hrs
[14] = tested on: BV-2; test: Inhibition of LPS-induced ERK phosphorylation in mouse BV-2 cells at 5 to 10 uM pretreated for 12 hrs followed by LPS-stimulation and measured after 6 hrs by Western blot analysis; format: cell-based; settings: dose 5-10 µM, time 18.0 hrs
[15] = tested on: Mus musculus; test: Antiinflammatory activity in C57BL/6J mouse assessed as inhibition of MPTP-induced ERK phosphorylation at 15 mg/kg, ip administered with compound once daily for 2 weeks followed by MPTP addition on day 8 and measured after 2 weeks of compound addition Western blot analysis; format: functional, organism-based
[16] = tested on: Mus musculus; test: Anti-parkinson activity in MPTP-induced C57BL/6J mouse model assessed as increase in locomotion at 15 to 35 mg/kg, ip administered with compound once daily for 2 weeks followed by MPTP addition on day 8 and measured after 2 weeks of compound addition by open field test; format: functional, organism-based; settings: dose 15-35 mg/kg
[17] = tested on: Microglia; test: as §1, with “Caspase3” for “BAX”; format: functional, organism-based
[18] = tested on: BV-2; test: Antiinflammatory activity in LPS-induced mouse BV-2 cells assessed as reduction in TNF-alpha mRNA expression at 5 to 10 uM pretreated for 18 hrs followed by LPS-stimulation and measured after 6 hrs by qRT-PCR analysis; format: functional, cell-based; settings: dose 5-10 µM, time 24.0 hrs
[19] = tested on: BV-2; test: Antiinflammatory activity in LPS-induced mouse BV-2 cells assessed as reduction in CD86 mRNA expression at 5 to 10 uM pretreated for 18 hrs followed by LPS-stimulation and measured after 6 hrs by qRT-PCR analysis; format: functional, cell-based; settings: dose 5-10 µM, time 24.0 hrs
[20] = tested on: BV-2; test: Induction of apoptosis in mouse LPS-induced BV-2 cells assessed as increase in Bcl-2 expression at 5 to 10 uM pretreated for 18 hrs followed by LPS-stimulation and measured after 6 hrs by Western blot analysis; format: functional, cell-based; settings: dose 5-10 µM, time 24.0 hrs
[21] = tested on: BV-2; test: Inhibition of NF-kappaB activation in LPS-stimulated mouse BV-2 cells assessed as increase in IkappaBalpha expression at 5 to 10 uM pretreated for 18 hrs followed by LPS-stimulation and measured after 6 hrs by Western blot analysis; format: cell-based; settings: dose 5-10 µM, time 24.0 hrs
[22] = tested on: Microglia; test: Neuroprotective activity against MPTP-induced apoptosis in mouse microglia assessed as […] expression in brain tissue at 15 mg/kg, ip administered with compound once daily for 2 weeks followed by MPTP addition on day 8 and measured after 2 weeks of compound addition; format: functional, organism-based
[23] = tested on: BV-2; test: Induction of apoptosis in LPS-induced mouse BV-2 cells assessed as increase in Caspase3 expression at 5 to 10 uM pretreated for 18 hrs followed by LPS-stimulation and measured after 6 hrs by immunofluorescence analysis; format: functional, cell-based; settings: dose 5-10 µM, time 24.0 hrs
[24] = tested on: BV-2; test: Antiinflammatory activity in LPS-induced mouse BV-2 cells assessed as reduction in IL-6 mRNA expression at 5 to 10 uM pretreated for 18 hrs followed by LPS-stimulation and measured after 6 hrs by qRT-PCR analysis; format: functional, cell-based; settings: dose 5-10 µM, time 24.0 hrs
[25] = tested on: BV-2; test: Induction of apoptosis in LPS-induced mouse BV-2 cells assessed as increase in cleaved Caspase-3 expression at 5 to 10 uM pretreated for 18 hrs followed by LPS-stimulation and measured after 6 hrs by immunofluorescence analysis; format: functional, cell-based; settings: dose 5-10 µM, time 24.0 hrs
[26] = tested on: BV-2; test: Inhibition of LPS-induced NF-kappaB nuclear translocation in mouse BV-2 cells at 5 to 10 uM pretreated for 18 hrs followed by LPS-stimulation and measured after 6 hrs by immunofluorescence analysis; format: cell-based; settings: dose 5-10 µM, time 24.0 hrs
[27] = tested on: Mus musculus; test: Anti-parkinson activity in MPTP-induced C57BL/6J mouse model at 15 to 35 mg/kg, ip administered with compound once daily for 2 weeks followed by MPTP addition on day 8 and measured after 2 weeks of compound addition by rotarod test; format: functional, organism-based; settings: dose 15-35 mg/kg
[28] = tested on: BV-2; test: Induction of apoptosis in LPS-induced mouse BV-2 cells assessed as increase in Bcl-2 expression at 5 to 10 uM pretreated for 18 hrs followed by LPS-stimulation and measured after 6 hrs by immunofluorescence analysis; format: functional, cell-based; settings: dose 5-10 µM, time 24.0 hrs
[29] = tested on: Mus musculus; test: Antiinflammatory activity in C57BL/6J mouse assessed as inhibition of MPTP-induced NF-kappaB phosphorylation at 15 mg/kg, ip administered with compound once daily for 2 weeks followed by MPTP addition on day 8 and measured after 2 weeks of compound addition Western blot analysis; format: functional, organism-based
[30] = tested on: BV-2; test: Antiinflammatory activity in LPS-induced mouse BV-2 cells assessed as increase in Arg-1 mRNA expression at 5 to 10 uM pretreated for 18 hrs followed by LPS-stimulation and measured after 6 hrs by qRT-PCR analysis; format: functional, cell-based; settings: dose 5-10 µM, time 24.0 hrs
[31] = tested on: BV-2; test: Induction of apoptosis in mouse LPS-induced BV-2 cells assessed as increase in cleaved Caspase-3 expression at 5 to 10 uM pretreated for 18 hrs followed by LPS-stimulation and measured after 6 hrs by Western blot analysis; format: functional, cell-based; settings: dose 5-10 µM, time 24.0 hrs
[32] = tested on: BV-2; test: Antiinflammatory activity in LPS-induced mouse BV-2 cells assessed as reduction in IL-1beta mRNA expression at 5 to 10 uM pretreated for 18 hrs followed by LPS-stimulation and measured after 6 hrs by qRT-PCR analysis; format: functional, cell-based; settings: dose 5-10 µM, time 24.0 hrs
[33] = tested on: BV-2; test: Induction of apoptosis in LPS-induced mouse BV-2 cells assessed as increase in BAX expression at 5 to 10 uM pretreated for 18 hrs followed by LPS-stimulation and measured after 6 hrs by immunofluorescence analysis; format: functional, cell-based; settings: dose 5-10 µM, time 24.0 hrs
[34] = tested on: BV-2; test: Antiinflammatory activity in LPS-induced mouse BV-2 cells assessed as increase in CD206 mRNA expression at 5 to 10 uM pretreated for 18 hrs followed by LPS-stimulation and measured after 6 hrs by qRT-PCR analysis; format: functional, cell-based; settings: dose 5-10 µM, time 24.0 hrs
[35] = biological target: c-Jun N-terminal kinase (Mus musculus) (UniProt Q91Y86+Q9WTU6+Q61831); test: Inhibition of LPS-induced JNK phosphorylation in mouse BV-2 cells at 5 to 10 uM pretreated for 12 hrs followed by LPS-stimulation and measured after 6 hrs by Western blot analysis; format: cell-based; settings: dose 5-10 µM, time 18.0 hrs
Sequence of c-Jun N-terminal kinase (Mus musculus) (Q61831 whole entry, looked up): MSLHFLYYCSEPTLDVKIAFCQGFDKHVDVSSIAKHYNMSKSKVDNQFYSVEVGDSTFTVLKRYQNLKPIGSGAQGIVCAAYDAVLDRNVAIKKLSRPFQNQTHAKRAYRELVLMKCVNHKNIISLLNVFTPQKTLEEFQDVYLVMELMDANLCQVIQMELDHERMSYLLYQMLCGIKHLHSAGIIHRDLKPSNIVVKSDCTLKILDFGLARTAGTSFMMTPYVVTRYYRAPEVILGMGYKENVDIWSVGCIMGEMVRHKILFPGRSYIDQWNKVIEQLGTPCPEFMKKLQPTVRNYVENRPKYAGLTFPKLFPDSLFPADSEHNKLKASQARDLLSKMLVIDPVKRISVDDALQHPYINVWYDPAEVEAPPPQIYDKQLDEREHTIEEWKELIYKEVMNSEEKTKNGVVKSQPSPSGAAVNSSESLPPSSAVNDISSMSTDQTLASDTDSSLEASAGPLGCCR
Sequence of c-Jun N-terminal kinase (Mus musculus) (Q91Y86 whole entry, looked up): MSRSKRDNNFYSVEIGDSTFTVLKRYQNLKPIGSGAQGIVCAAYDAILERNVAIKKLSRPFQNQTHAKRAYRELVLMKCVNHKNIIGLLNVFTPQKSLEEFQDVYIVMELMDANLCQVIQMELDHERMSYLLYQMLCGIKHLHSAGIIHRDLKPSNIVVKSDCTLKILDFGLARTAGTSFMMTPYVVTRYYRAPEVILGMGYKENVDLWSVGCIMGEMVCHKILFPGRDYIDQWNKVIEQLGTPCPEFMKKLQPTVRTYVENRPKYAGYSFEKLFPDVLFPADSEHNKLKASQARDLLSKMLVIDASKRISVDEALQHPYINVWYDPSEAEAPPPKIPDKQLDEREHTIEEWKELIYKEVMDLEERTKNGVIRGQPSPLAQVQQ
Sequence of c-Jun N-terminal kinase (Mus musculus) (Q9WTU6 whole entry, looked up): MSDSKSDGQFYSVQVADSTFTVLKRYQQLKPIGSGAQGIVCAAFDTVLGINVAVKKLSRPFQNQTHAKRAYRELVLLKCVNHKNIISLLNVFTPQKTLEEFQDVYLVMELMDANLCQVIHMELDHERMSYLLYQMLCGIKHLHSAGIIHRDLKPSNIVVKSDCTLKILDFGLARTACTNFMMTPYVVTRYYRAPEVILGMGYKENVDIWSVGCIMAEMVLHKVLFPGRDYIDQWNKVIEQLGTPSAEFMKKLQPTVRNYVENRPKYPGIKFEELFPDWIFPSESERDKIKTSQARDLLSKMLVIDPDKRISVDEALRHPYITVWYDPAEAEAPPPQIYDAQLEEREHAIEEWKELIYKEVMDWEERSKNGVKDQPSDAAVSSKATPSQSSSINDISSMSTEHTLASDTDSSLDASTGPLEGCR

[36] = tested on: Microglia; test: as §1, with “Bcl2” for “BAX”; format: functional, organism-based
[37] = tested on: Mus musculus; test: Antiinflammatory activity in C57BL/6J mouse assessed as inhibition of MPTP-induced p38 phosphorylation at 15 mg/kg, ip administered with compound once daily for 2 weeks followed by MPTP addition on day 8 and measured after 2 weeks of compound addition Western blot analysis; format: functional, organism-based
[38] = tested on: BV-2; test: Antiinflammatory activity in LPS-induced mouse BV-2 cells assessed as increase in IL-10 mRNA expression at 5 to 10 uM pretreated for 18 hrs followed by LPS-stimulation and measured after 6 hrs by qRT-PCR analysis; format: functional, cell-based; settings: dose 5-10 µM, time 24.0 hrs

C#CCN[C@@H]1CCc2ccccc21
active: Activity [1] | inhibition [2]

Cc1c(-c2ccccc2)oc2c(-c3nc(-c4ccc(F)cc4)no3)cccc2c1=O
41.6%: Activity [4]
active: inhibition [2]
Non-Toxic: Activity [3] | Activity [5]

COc1ccc(-c2coc3cc(O)cc(O)c3c2=O)cc1
active: inhibition [2]

CCc1ccc(-c2noc(-c3cccc4c(=O)c(C)c(-c5ccccc5)oc34)n2)cc1
41.6%: Activity [4]
active: inhibition [2]

Cc1c(-c2ccccc2)oc2c(-c3nc(-c4ccccc4)no3)cccc2c1=O
22.4%: Activity [4]
active: inhibition [2]

Cc1c(-c2ccccc2)oc2c(-c3nc(-c4cccc(Br)c4)no3)cccc2c1=O
Non-Toxic: Activity [3]
41.6%: Activity [4]
active: inhibition [2]

Cc1ccc(-c2noc(-c3cccc4c(=O)c(C)c(-c5ccccc5)oc34)n2)cc1
22.4%: Activity [4]
active: inhibition [2]

Cc1ccc(-c2noc(-c3ccc(F)c(F)c3)n2)cn1
active: inhibition [2]

Cc1cccc(-c2noc(-c3cccc4c(=O)c(C)c(-c5ccccc5)oc34)n2)c1
64.2%: Activity [4]
active: Activity [6] | Activity [7] | Activity [8] | inhibition [9] | Activity [10] | Activity [11] | Activity [12] | Activity [13] | inhibition [14] | Activity [15] | Activity [16] | Activity [17] | Activity [18] | Activity [19] | Activity [20] | inhibition [21] | Activity [22] | Activity [23] | Activity [24] | Activity [25] | inhibition [26] | Activity [27] | Activity [28] | Activity [1] | Activity [29] | Activity [30] | Activity [31] | inhibition [2] | Activity [32] | Activity [33] | Activity [34] | inhibition [35] | Activity [36] | Activity [37] | Activity [38]
Non-Toxic: Activity [3] | Activity [5]
